The source of these data is patent US10709724B2, “Methods of treating mitochondrial dysfunction” (Ecole Polytechnique Federale de Lausanne (EPFL), priority 2011, dated 2020).

One test relates to SIRT1 MEF cells. The experiment in a line: PJ34 in SIRT1−/− MEFs. The format is cell-based, mice. Here is the method:
Cell Culture, Transfection, Adenoviral Infection and Mitochondrial Characterization. HEK293T, MEF and C2C12 cells were cultured in DMEM (4.5 g/l glucose, 10% FCS). PARP-1^+/+ and PARP-1^−/− MEFs were prepared as described in (Menissier-de Murcia et al., 1997). SIRT1 and MEFs were kindly provided by Fred Alt (Chea et al., 2005). SIRT3 MER were established according to standard techniques from conditional SERT3^−/− mice. […] Mitochondrial charge determination was performed as described (Bai et al., 2001) and DNA strand breaks were quantified by TUNEL assays according to the manufacturer's instructions (Millipore).
Immunoprecipitation, SDS-PAGE, Western Blotting. […] Reactions were developed by enhanced chemiluminescence (Amersham, Little Chalfont, UK), PGC-1α, FOXO1 and Ndufa9 acetylation levels were analyzed by immunoprecipitation from cellular or nuclear lysates of tissues with anti-PGC-1α (Millipore), anti-FOXO1 (Cell Signaling, Danvers, Mass., USA) and anti-Ndufa9 (Abcam) antibody followed by Western blot using an acetyl-lysine antibody (Cell Signaling) that was normalized to total PGC-1a/FOXO1/Ndufa9 levels (Lagouge et al., 2006; Rodgers et al., 2005). […] All blots were quantified by densitometry using ImageJ software. […]

The subject of another test is C2C12 myotubes. As to the kind of experiment: Mitochondrial gene expression, mtDNA and membrane potential in C2C12 myotubes. The format is cell-based. As to the method:
Cell Culture, Transfection, Adenoviral Infection and Mitochondrial Characterization. HEK293T, MEF and C2C12 cells were cultured in DMEM (4.5 g/l glucose, 10% FCS). PARP-1^+/+ and PARP-1^−/− MEFs were prepared as described in (Menissier-de Murcia et al., 1997). SIRT1 and MEFs were kindly provided by Fred Alt (Chea et al., 2005). SIRT3 MER were established according to standard techniques from conditional SERT3^−/− mice. (Picard, F., Gehin, M., Annicotte, J., Rocchi, S., Champy, M. F., O'Malley, B. W., Chambon, P., and Auwerx, J. (2002). SRC-1 and TIF2 control energy balance between white and brown adipose tissues. Cell 111, 931-941.) Deletion of the SIRT3 gene was induced via infection with adenovirus encoding for the Cre recombinase. HEK293T cells were transfected using JetPei reagent (Polyplus Transfections, Illkirch, France) according to the manufacturer's instructions. C2C12 cells were differentiated in DMEM (4.5 g/L glucose, 2% horse serum) after reaching confluency for 2 days, followed by 2 days of PJ34 treatment (10 μM). PARP-1 shRNA constructs were described in (Shah et al., 2005). Human PARP-1 and siRNAs were obtained from Dharmacon (Thermo Scientific). The adenovirus encoding for FLAG-HA-PGC-1α, control and SIRT1 shRNAs were a kind gift from Pere Puigserver and were used (MOI=100) in C2C12 myotubes as described (Canto et al., 2009). Mitochondrial charge determination was performed as described (Bai et al., 2001) and DNA strand breaks were quantified by TUNEL assays according to the manufacturer's instructions (Millipore).
mRNA and mtDNA Analysis. Total RNA was prepared using TRIzol (Invitrogen) according to the manufacturer's instructions. RNA was treated with DNase, and 2 μg of RNA was used for reverse transcription (RT). cDNA was purified on QIAquick PCR cleanup columns (Qiagen, Valencia, Calif., USA). 50× diluted cDNA was used for RT-quantitative PCR (RT-VCR) VCR) reactions (Bai et al., 2007). The RT-qPCR reactions were performed using the Light-Cycler system (Roche Applied Science) and a qPCR Supermix (Qiagen) with the primers for mice summarized in Table 1 and 4, and with the primers for worms summarized on Table 7. mtDNA quantification was performed as described (Lagouge et al., 2006) with the primers indicated in Table 2 and 5.
Mitochondrial DNA Measurement The assay was performed as described (Lagouge et al., 2006). DNA. was extracted using the standard proteinase K digestion following phenol-chloroform extraction. Mitochondrial and genomic DNA was determined using specific primers in qPCR reactions (primers summarized in Table 2 and 5.) and was expressed as percentage of WT.

A further test deals with SIRT3. As to the kind of experiment: SIRT3 activity (Ndufa9, SOD2 acetylation) in NR-treated HEK293T cells. Conditions: 0.5 mM, 24 hrs. The class given is cell-based, human. Here is the method: Immunoprecipitation, SDS-PAGE, Western Blotting. Cells were lysed in lysis buffer (50 mM Tris, […], EDTA 1 mM, NP40 1%, nicotinamide 5 mM, Na-butyrate 1 in M, protease inhibitors pH7.4). Proteins were separated by SDS-PAGE and transferred onto nitrocellulose membranes. The origin of the primary and secondary antibodies used can be found as supplemental experimental procedures. Reactions were developed by enhanced chemiluminescence (Amersham, Little Chalfont, UK), PGC-1α, FOXO1 and Ndufa9 acetylation levels were analyzed by immunoprecipitation from cellular or nuclear lysates of tissues with anti-PGC-1α (Millipore), anti-FOXO1 (Cell Signaling, Danvers, Mass., USA) and anti-Ndufa9 (Abcam) antibody followed by Western blot using an acetyl-lysine antibody (Cell Signaling) that was normalized to total PGC-1a/FOXO1/Ndufa9 levels (Lagouge et al., 2006; Rodgers et al., 2005). In HEK293T cells HA-tagged PGC-1α was overexpressed and was immunoprecipitated using an anti-HA. In C2C12 myotubes, FLAG-HA tagged PGC-1α was introduced through adenoviral delivery 2 days before treatments, then IP was performed using anti-FLAG antibody and samples were processed as described. All blots were quantified by densitometry using ImageJ software. Poly(ADP-Ribose) detection was performed as previously described with slight modifications (Bai et al., PARP-1 inhibition increases mitochondrial metabolism through SIRT1 activation. Cell Metab 13, 461-468. (2011)) Briefly, PAR was detected by using a monoclonal anti-PAR antibody (Alexis, Lausanne Switzerland) by Western blotting of total protein lysates, using either […] of total worm protein lysates, […] of liver protein lysate or 200 g of muscle total protein extracts. PGC-1 acetylation was determined using PGC-1 immunoprecipitates from 2 mg of protein extracts, as described in Canto et al. (Canto et al., AMPK regulates energy expenditure by modulating NAD+ metabolism and SIRT1 activity. Nature 458, 1056 (2009)). […]

The structures appear in SMILES notation.

For `CN(C)CC(=O)Nc1ccc2[nH]c(=O)c3ccccc3c2c1` [PJ34], the mitochondrial gene expression result with SIRT1 MEF cells (SIRT1 MEF cells) is “largely blunted”. Besides, in the test on SIRT1 MEF cells (SIRT1−/− MEFs), the PGC-1α acetylation levels entry was “totally unable to decrease PGC-1α acetylation levels”. In the test with C2C12 myotubes (1 μM, 48 h), the “mitochondrial DNA content” value is “higher mitochondrial DNA content” and the mitochondrial membrane potential entry was “higher mitochondrial potential”. For the same compound, the “expression of mitochondrial genes (Ndufa2, Ndufa3, MCAD, PDK4, UCP3)” value with C2C12 myotubes (48 hrs) is recorded as “increased expression of several mitochondrial genes”. Further, in the test with C2C12 myotubes (SIRT1 shRNA), the “UCP3 mRNA expression with SIRT1 knock-down” value is recorded as “persistent increase in UCP3 mRNA expression” and the “mitochondrial gene expression with SIRT1 knock-down” value is recorded as “largely blunted”.

As to `NC(=O)c1ccc[n+]([C@@H]2O[C@H](CO)[C@@H](O)[C@H]2O)c1` [NR, nicotinamide riboside], in the test with SIRT3, the SOD2 activity result is reported as “enhanced SOD2 activity”, the “acetylation status of Ndufa9” value is given as “reduced the acetylation status” and the “acetylation status of SOD2” value is reported as “reduced the acetylation status”.
